Assay [1] deals with T1, human recombinant MAO B (Homo sapiens, UniProt P27338).
T1 construct: purchased Sigma Aldrich, Milan, Italy
T1 sequence (P27338 1-520): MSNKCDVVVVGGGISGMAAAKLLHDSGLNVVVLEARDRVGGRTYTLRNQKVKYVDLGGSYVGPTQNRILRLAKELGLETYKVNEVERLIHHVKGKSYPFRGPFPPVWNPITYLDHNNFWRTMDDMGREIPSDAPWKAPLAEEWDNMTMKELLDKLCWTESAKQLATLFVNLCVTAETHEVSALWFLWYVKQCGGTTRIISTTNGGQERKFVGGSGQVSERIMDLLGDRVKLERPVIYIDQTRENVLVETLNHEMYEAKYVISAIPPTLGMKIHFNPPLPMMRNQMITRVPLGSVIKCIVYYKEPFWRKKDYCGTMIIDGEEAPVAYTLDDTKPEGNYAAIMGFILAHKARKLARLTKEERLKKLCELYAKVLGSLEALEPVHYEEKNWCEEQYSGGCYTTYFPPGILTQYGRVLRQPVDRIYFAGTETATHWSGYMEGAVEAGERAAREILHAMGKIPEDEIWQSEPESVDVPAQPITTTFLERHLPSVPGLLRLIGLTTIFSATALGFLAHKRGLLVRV
The assay can be described thus: Human recombinant MAO B inhibition (kynuramine fluorescence). The class given is biochemical. As to conditions: mean ±SEM of three independent experiments. The procedure:
(§1) In vitro enzymatic screening toward ChEs was carried out according to the known Ellman’s protocol, by using eeAChE and esBChE as highly homologous and cheaper surrogates for human enzymes. The enzyme inhibition assays on human MAOs were performed by applying already reported methods.
(§2) All enzymes and reagents were purchased from Sigma Aldrich, Milan, Italy. Inhibition of human recombinant MAO A and B was assayed by monitoring the fluorescence of 4-hydroxyquinoline produced from the oxidation of substrate kynuramine, following a previously published method. Acetylcholinesterase from electric eel and butyrylcholinesterase from equine serum were used in the Ellman’s spectrophotometric method as already described. In all cases, a 96-well plate procedure was used with an Infinite M1000 Pro plate reader (Tecan, Cernusco sul Naviglio, Italy). Inhibition values were determined as IC50 values by statistical analysis using Prism (GraphPad Prism version 5.00 for Windows, GraphPad Software, San Diego, CA, USA).

Assay [2] has as its target T2, human recombinant MAO A (Homo sapiens, UniProt P21397).
T2 construct: purchased Sigma Aldrich, Milan, Italy
T2 sequence (P21397 1-527): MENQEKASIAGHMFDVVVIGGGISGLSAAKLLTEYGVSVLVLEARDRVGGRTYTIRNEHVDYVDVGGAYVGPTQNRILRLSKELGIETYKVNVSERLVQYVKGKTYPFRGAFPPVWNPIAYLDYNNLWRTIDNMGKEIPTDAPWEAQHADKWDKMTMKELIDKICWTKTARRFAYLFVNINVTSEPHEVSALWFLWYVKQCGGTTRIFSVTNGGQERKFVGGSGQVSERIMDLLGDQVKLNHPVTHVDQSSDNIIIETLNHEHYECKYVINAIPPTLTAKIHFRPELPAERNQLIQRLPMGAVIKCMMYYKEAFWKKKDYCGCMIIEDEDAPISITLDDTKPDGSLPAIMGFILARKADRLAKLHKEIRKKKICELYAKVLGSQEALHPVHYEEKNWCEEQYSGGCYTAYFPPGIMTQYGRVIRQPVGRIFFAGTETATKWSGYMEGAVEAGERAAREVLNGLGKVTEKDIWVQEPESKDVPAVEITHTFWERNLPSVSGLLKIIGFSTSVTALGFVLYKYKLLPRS
Kind of assay: biochemical. The conditions noted are these: for inhibition at 10 µM: read-out: MAO A % inhibition at 10 μM, mean ±SEM of three. The procedure:
as §1, §2

Assay [3] has as its target T3, butyrylcholinesterase from equine serum (Equus caballus, UniProt P81908).
T3 construct: butyrylcholinesterase from equine serum; purchased Sigma Aldrich, Milan, Italy; host or cells: equine serum
Kind of assay: biochemical. The format is biochemical. The conditions noted are these: for IC50: BChE from equine serum, mean ±SEM of three; for inhibition at 10 µM: read-out: BChE % inhibition at 10 μM. The procedure: as §1, §2

Assay [4] has as its target T4, Acetylcholinesterase from electric eel (Electrophorus electricus, UniProt O42275).
T4 construct: purchased Sigma Aldrich, Milan, Italy
The assay can be described thus: biochemical. The class given is biochemical. The conditions noted are these: for IC50: AChE from electric eel, mean ±SEM of three; for inhibition at 10 µM: read-out: AChE % inhibition at 10 μM. The procedure: as §1, §2

Setting [5] is: human recombinant MAO, read-out: MAO B IC50.
The mark [6] stands for this setting: human recombinant MAO, mean ±SEM of three independent experiments, read-out: MAO A IC50.
Where [7] appears, read: MAO B IC50, human recombinant MAO.

“And” between values parts separate entries of the source, which are not always exact repeats. Equal values may be shown once. Where a name gives a salt, the structure may show the parent alone. Read-outs that look alike come from different tables or passages of the source.

The text below walks through data of publication PMC6943664 (Molecules, 2019).

T3 sequence (P81908 whole entry): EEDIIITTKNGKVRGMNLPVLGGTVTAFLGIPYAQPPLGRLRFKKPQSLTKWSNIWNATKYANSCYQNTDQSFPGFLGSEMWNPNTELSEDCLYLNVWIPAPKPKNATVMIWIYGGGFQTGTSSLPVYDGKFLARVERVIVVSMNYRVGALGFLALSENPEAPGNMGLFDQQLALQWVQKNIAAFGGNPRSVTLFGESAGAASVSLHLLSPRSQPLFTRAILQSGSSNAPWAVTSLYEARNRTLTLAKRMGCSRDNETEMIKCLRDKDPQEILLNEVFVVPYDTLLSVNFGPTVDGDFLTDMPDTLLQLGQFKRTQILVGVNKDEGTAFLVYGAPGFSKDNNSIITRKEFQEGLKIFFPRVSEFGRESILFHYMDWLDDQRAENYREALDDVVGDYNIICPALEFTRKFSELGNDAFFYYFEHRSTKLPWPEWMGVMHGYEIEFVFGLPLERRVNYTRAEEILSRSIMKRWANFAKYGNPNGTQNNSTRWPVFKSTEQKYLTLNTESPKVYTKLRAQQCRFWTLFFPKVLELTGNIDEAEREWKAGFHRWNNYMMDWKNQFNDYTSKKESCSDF
T4 sequence (O42275 24-633): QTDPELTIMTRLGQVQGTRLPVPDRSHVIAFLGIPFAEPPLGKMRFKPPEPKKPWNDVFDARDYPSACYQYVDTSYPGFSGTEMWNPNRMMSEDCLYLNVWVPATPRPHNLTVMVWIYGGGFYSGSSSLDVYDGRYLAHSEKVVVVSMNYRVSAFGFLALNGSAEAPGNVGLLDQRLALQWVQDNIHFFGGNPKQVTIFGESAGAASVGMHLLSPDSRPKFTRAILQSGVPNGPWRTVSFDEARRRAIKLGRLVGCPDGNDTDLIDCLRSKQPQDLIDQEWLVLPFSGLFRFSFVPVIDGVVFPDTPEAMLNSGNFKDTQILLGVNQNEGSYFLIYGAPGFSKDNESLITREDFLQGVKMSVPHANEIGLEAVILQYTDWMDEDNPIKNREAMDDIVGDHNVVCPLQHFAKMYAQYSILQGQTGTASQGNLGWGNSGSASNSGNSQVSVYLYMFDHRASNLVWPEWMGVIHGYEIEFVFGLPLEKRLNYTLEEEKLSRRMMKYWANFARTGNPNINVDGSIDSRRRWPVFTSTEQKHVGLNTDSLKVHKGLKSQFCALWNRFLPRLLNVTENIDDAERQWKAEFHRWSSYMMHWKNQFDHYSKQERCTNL

As a reminder, the IC50 is the concentration that gives 50% inhibition. As to `CNCc1cc(=O)oc2cc(OCc3ccc4c(c3)OCO4)ccc12` [compound 6, 7-(1,3-benzodioxol-5-ylmethoxy)-4-[(methylamino)methyl]-2H-chromen-2-one], the IC50 was 7.5 ± 0.1 nM in assay [1] (setting [5]), 1200 ± 100 nM in assay [2] (setting [6]), 3400 ± 2100 nM in assay [3] and 8500 ± 1800 nM in assay [4].
Usually inhibition stands for the share of the control response that was lost under treatment. For the molecule `O=c1cc(CN2CCCC2)c2ccc(OCc3cccc(Cl)c3)cc2o1` [compound 15, 7-[(3-chlorobenzyl)oxy]-4-(pyrrolidin-1-ylmethyl)-2H-chromen-2-one], the concentration for half-maximal inhibition (IC50) in assay [1] (setting [5]) stood at 152 ± 20 nM; in assay [2] (setting [6]), 1120 ± 10 nM; in assay [4], 6600 ± 900 nM. Moreover, the inhibition at 10 µM in assay [3] came out at 14 ± 2%.
With `CN(C)Cc1cc(=O)oc2cc(OCc3cccc(Cl)c3)ccc12` [compound 19, 7-[(3-chlorobenzyl)oxy]-4-[(dimethylamino)methyl]-2H-chromen-2-one], the half-maximal inhibitory concentration (IC50) is 213 ± 2 nM in assay [1] (setting [5]), 9200 ± 700 nM in assay [2] (setting [6]), 7000 ± 1100 nM in assay [3] and 8300 ± 2000 nM in assay [4].
For `C#CCN(C)Cc1cc(=O)oc2cc(OCc3cccc(Cl)c3)ccc12` [compound 23, 7-[(3-Chlorobenzyl)oxy]-4-{[methyl(prop-2-yn-1-yl)amino]methyl}-2H-chromen-2-one hydrochloride], the IC50 was found to be 84 ± 2 nM in assay [1] (setting [7]), 1700 ± 100 nM in assay [2] and 5600 ± 700 nM in assay [4]. In assay [3], the inhibition at 10 µM was determined as 28 ± 1%.
Turning to `CCCCNCc1cc(=O)oc2cc(OCc3cccc(Cl)c3)ccc12` [compound 21, 4-[(butylamino)methyl]-7-[(3-chlorobenzyl)oxy]-2H-chromen-2-one], the IC50 in assay [1] (setting [5]) is 164 ± 2 nM; in assay [3] it was 4800 ± 300 nM. Further, the figures for the inhibition at 10 µM in assay [2] (human recombinant MAO) and in assay [4] were 41 ± 3% and 39 ± 1%, respectively.
For `CN1CCN(Cc2cc(=O)oc3cc(OCc4cccc(Cl)c4)ccc23)CC1` [compound 16, 7-[(3-Chlorobenzyl)oxy]-4-[(4-methylpiperazin-1-yl)methyl]-2H-chromen-2-one], the 50% inhibitory concentration (IC50) in assay [1] (setting [5]) is 270 nM and 273 nM; in assay [3] it was 2300 ± 900 nM; in assay [4] it was 3100 ± 600 nM. In addition, the inhibition at 10 µM in assay [2] (human recombinant MAO) came out at 32 ± 5%. The “BChE/MAO B IC50 ratio” value in assay [3] (esBChE vs human MAO B) was 9. Also, the “AChE/MAO B IC50 ratio” value in assay [4] (eeAChE vs human MAO B) is 11.
As for `CN(C)C(=O)CNCc1cc(=O)oc2cc(OCc3cccc(Cl)c3)ccc12` [compound 26, N^2-({7-[(3-Chlorobenzyl)oxy]-2-oxo-2H-chromen-4-yl}methyl)-N^1,N^1-dimethylglycinamide], the IC50 in assay [1] (setting [5]) was found to be 30 ± 1 nM; in assay [2] (setting [6]), 2500 ± 500 nM; in assay [4], 4300 ± 600 nM. For the same molecule, in assay [3], the inhibition at 10 µM came to 34 ± 2%.
As to `CNCc1cc(=O)oc2cc(OCc3ccccc3)ccc12` [compound 7, 7-(benzyloxy)-4-[(methylamino)methyl]-2H-chromen-2-one], the results for the half-maximal inhibitory concentration (IC50) in assay [1] (setting [5]) and in assay [2] (setting [6]) were 2.1 ± 0.2 nM and 530 ± 10 nM, respectively. The inhibition at 10 µM is 17 ± 1% in assay [3] and 26 ± 5% in assay [4].
Consider `CNCc1cc(=O)oc2cc(OCc3cccc(Cl)c3)c(Cl)cc12` [compound 12, 6-Chloro-7-[(3-chlorobenzyl)oxy]-4-[(methylamino)methyl]-2H-chromen-2-one], for which the IC50 in assay [1] (setting [5]) was found to be 1000 ± 100 nM; in assay [4], 7900 ± 400 nM. Further, the inhibition at 10 µM in assay [2] (human recombinant MAO) came out at 48 ± 1%; in assay [3], 27 ± 2%.
As to `CNCc1cc(=O)oc2cc(OCc3cccc(F)c3)ccc12` [compound 9, 7-[(3-fluorobenzyl)oxy]-4-[(methylamino)methyl]-2H-chromen-2-one], the half-maximal inhibitory concentration (IC50) in assay [1] (setting [5]) came to 1.3 ± 0.1 nM; in assay [2] (setting [6]), 1740 ± 40 nM; in assay [3], 4800 ± 300 nM; in assay [4], 2700 ± 1000 nM.
As to `NCc1cc(=O)oc2cc(OCc3cccc(Cl)c3)ccc12` [compound 18, 4-(aminomethyl)-7-[(3-chlorobenzyl)oxy]-2H-chromen-2-one], the IC50 turned out to be 66 ± 15 nM in assay [1] (setting [5]) and 17000 ± 4000 nM in assay [4]. Besides, the inhibition at 10 µM worked out at 46 ± 3% in assay [2] (human recombinant MAO) and 20 ± 7% in assay [3].
For `CNC(=O)CNCc1cc(=O)oc2cc(OCc3cccc(Cl)c3)ccc12` [compound 25, N^2-({7-[(3-Chlorobenzyl)oxy]-2-oxo-2H-chromen-4-yl}methyl)-N^1-methylglycinamide], the concentration for half-maximal inhibition (IC50) turned out to be 1.1 ± 0.3 nM in assay [1] (setting [5]), 2600 ± 100 nM in assay [2] (setting [6]) and 5300 ± 1400 nM in assay [4]. For the same molecule, in assay [3], the inhibition at 10 µM is < 5%.
On to `CN(Cc1ccccc1)Cc1cc(=O)oc2cc(OCc3cccc(Cl)c3)ccc12` [compound 14, 4-{[benzyl(methyl)amino]methyl}-7-[(3-chlorobenzyl)oxy]-2H-chromen-2-one], for which the concentration for half-maximal inhibition (IC50) turned out to be 332 ± 26 nM in assay [1] (setting [5]), 6300 ± 300 nM in assay [3] and 16000 ± 1000 nM in assay [4]. Further, the inhibition at 10 µM in assay [2] (human recombinant MAO) was determined as 28 ± 1%.
In the case of `CNCc1cc(=O)oc2c(C)c(OCc3cccc(Cl)c3)ccc12` [compound 10, 7-[(3-Chlorobenzyl)oxy]-8-methyl-4-[(methylamino)methyl]-2H-chromen-2-one], the values for the IC50 in assay [1] (setting [5]), in assay [2] (setting [6]) and in assay [4] were 170 ± 10 nM, 1000 ± 100 nM and 7200 ± 600 nM, respectively. For the same molecule, the inhibition at 10 µM in assay [3] worked out at 46 ± 2%.
Turning to `COc1cc(COc2ccc3c(CNCC(N)=O)cc(=O)oc3c2)cc(OC)c1` [compound 27, N^2-({7-[(3,5-dimethoxybenzyl)oxy]-2-oxo-2H-chromen-4-yl}methyl)glycinamide], the half-inhibitory concentration (IC50) in assay [1] (setting [5]) turned out to be 13 ± 1 nM; in assay [2] (setting [6]), 5900 ± 500 nM; in assay [4] it was 4400 ± 800 nM. Also, the inhibition at 10 µM in assay [3] was determined as 41 ± 2%.
For the molecule `CNCc1cc(=O)oc2cc(OCc3cc(OC)cc(OC)c3)ccc12` [compound 5, 7-[(3,5-Dimethoxybenzyl)oxy]-4-[(methylamino)methyl]-2H-chromen-2-one], the half-inhibitory concentration (IC50) worked out at 67 ± 5 nM in assay [1] (setting [5]), 1000 ± 100 nM in assay [2] (setting [6]) and 11000 ± 2000 nM in assay [4]. The inhibition at 10 µM in assay [3] was determined as 20 ± 4%.
Take `C#CCNCc1cc(=O)oc2cc(OCc3cccc(Cl)c3)ccc12` [compound 22, 7-[(3-Chlorobenzyl)oxy]-4-[(prop-2-yn-1-ylamino)methyl]-2H-chromen-2-one]: the IC50 came to 4.1 ± 1.1 nM in assay [1] (setting [5]), 1100 ± 100 nM in assay [2] (setting [6]) and 2100 ± 200 nM in assay [4]. Besides, the inhibition at 10 µM in assay [3] was found to be 33 ± 6%.
Take `O=c1cc(CN2CCOCC2)c2ccc(OCc3cccc(Cl)c3)cc2o1` [compound 17, 7-[(3-chlorobenzyl)oxy]-4-(morpholin-4-ylmethyl)-2H-chromen-2-one]: the values for the IC50 in assay [1] (setting [5]) and in assay [4] were 172 ± 1 nM and 6600 ± 1100 nM, respectively. In addition, the inhibition at 10 µM in assay [2] (human recombinant MAO) was 32 ± 3%; in assay [3], 46 ± 2%.
As for `O=c1cc(CNCc2ccccc2)c2ccc(OCc3cccc(Cl)c3)cc2o1` [compound 13, 4-[(benzylamino)methyl]-7-[(3-chlorobenzyl)oxy]-2H-chromen-2-one], the half-maximal inhibitory concentration (IC50) in assay [1] (setting [5]) is 103 ± 1 nM; in assay [3], 3400 ± 1300 nM; in assay [4], 17000 ± 1000 nM. For the same molecule, in assay [2] (human recombinant MAO), the inhibition at 10 µM was found to be 24 ± 3%.
On to `CNCc1cc(=O)oc2cc(OCc3cccc(Cl)c3)c(C)cc12` [compound 11, 7-[(3-Chlorobenzyl)oxy]-6-methyl-4-[(methylamino)methyl]-2H-chromen-2-one hydrochloride], for which the IC50 in assay [1] (setting [7]) amounted to 68 ± 2 nM; in assay [2] it was 580 ± 30 nM. Also, the inhibition at 10 µM in assay [3] came to 48.1 ± 0.6%; in assay [4] it was 47.1 ± 0.3%.
